Measured values: PMC6855808, “Direct binding of phosphatidylglycerol at specific sites modulates desensitization of a ligand-gated ion channel” (eLife, 2019)
Values joined by “and” are separate entries in the source; they are usually repeats but may differ in a detail not shown here. Equal values may be shown once.

Experiments:
[1] = tested on: ELIC double mutants (arginine mutants in combination with R299Q); assay: Native MS POPG binding, double arginine mutants as a group; design: species or system Erwinia chrysanthemi
Method: Native MS analysis was similar to previous descriptions for other membrane proteins ([Gault et al., 2016]). For analysis of ELIC in DDM, 30 μl of purified protein in 0.02% DDM at ~1 mg/ml was buffer exchanged into 200 mM ammonium acetate pH 7.5% and 0.02% DDM using Biospin six gel filtration spin columns (Bio-Rad, Hercules, CA). 2 μl of buffer exchanged ELIC was loaded into a borosilicate capillary emitter (Thermo Scientific, Waltham, MA), and analyzed by static nanospray on a Thermo QExactive EMR mass spectrometer. The following parameters were used to resolve the ELIC pentamer and minimize dissociation into tetramer and monomer: capillary voltage of 1.2 kV, capillary temperature of 200°C, ion transfer optics set with the injection flatapole, inter-flatapole lens, bent flatapole, transfer multiple as 8, 7, 6, 4 V, respectively, resolution 8,750, AGC target 3 × 10^6, trap pressure set to maximum, CID 200 V, and CE 100 V. For analysis of ELIC in C10E5, ELIC delipidated by injecting 300 μg onto a Sephadex 200 10/300 column (GE Healthcare) at 0.5 ml/min pre-equilibrated with Buffer A, 10% glycerol, and 0.06% C10E5 (Anatrace). 30 μl aliquots were then buffer exchanged to 100 mM ammonium acetate pH 7.5, 0.06% C10E5 using Biospin six columns, and diluted to 0.2 mg/ml. […] Lipid stocks were then mixed with 0.4 mg/ml ELIC in a 1:1 vol ratio for a final concentration of 1 μM ELIC, and samples were analyzed after >5 min incubation.
(§1) MS spectra were deconvoluted using UniDec ([Marty et al., 2015]); deconvolution of spectra with bound lipid was restricted to the 26+ to 22+ charge states (Figure 1—figure supplement 3). Peak heights of apo and lipid-bound species were extracted from UniDec, and analyzed by two approaches. The average number of bound lipids was determined by the following relationship:(1) Averagenumberboundlipid=∑n=0kn\cdot In/∑n=0kIn where n is the number of bound lipids and In is the deconvoluted peak height of ELIC with n bound lipids. […]

[2] = tested on: ELIC single mutants (R123Q, R286Q, R299Q); assay: Native MS POPG binding, single arginine mutants as a group; design: species or system Erwinia chrysanthemi; conditions: 12 μM POPG; not statistically significant
Method: (§2) Native MS analysis was similar to previous descriptions for other membrane proteins ([Gault et al., 2016]). For analysis of ELIC in DDM, 30 μl of purified protein in 0.02% DDM at ~1 mg/ml was buffer exchanged into 200 mM ammonium acetate pH 7.5% and 0.02% DDM using Biospin six gel filtration spin columns (Bio-Rad, Hercules, CA). 2 μl of buffer exchanged ELIC was loaded into a borosilicate capillary emitter (Thermo Scientific, Waltham, MA), and analyzed by static nanospray on a Thermo QExactive EMR mass spectrometer. […] Lipid stocks were then mixed with 0.4 mg/ml ELIC in a 1:1 vol ratio for a final concentration of 1 μM ELIC, and samples were analyzed after >5 min incubation.
as §1

ELIC WT [3] = assay: Excised patch-clamp recordings from giant liposomes; conditions: 30 mM cysteamine; for Desensitization norm current at 20 s: normalized to peak response
ELIC L238A = molecular target: T1, ELIC L238A (Dickeya chrysanthemi, UniProt P0C7B7, L237A); assay: Native MS POPG binding, mutant; design: species or system Erwinia chrysanthemi; conditions: 12 μM POPG
T1 construct: MBP (N, cleaved yes); made in house; host or cells: OverExpress C43 (DE3) E. coli
T1 sequence (P0C7B7 whole entry L237A): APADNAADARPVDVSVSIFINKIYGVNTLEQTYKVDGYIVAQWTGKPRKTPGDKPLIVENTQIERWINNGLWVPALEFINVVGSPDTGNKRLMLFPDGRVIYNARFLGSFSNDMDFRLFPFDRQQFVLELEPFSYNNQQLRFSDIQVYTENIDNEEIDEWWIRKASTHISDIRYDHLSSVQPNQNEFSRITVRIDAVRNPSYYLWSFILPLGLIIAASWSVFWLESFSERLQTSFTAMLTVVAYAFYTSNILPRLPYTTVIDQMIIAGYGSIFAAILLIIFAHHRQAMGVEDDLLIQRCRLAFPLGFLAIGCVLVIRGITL
Method: as §2, §1

ELIC R301Q/R299Q = molecular target: T2, ELIC R301Q/R299Q (Dickeya chrysanthemi, UniProt P0C7B7, R298Q/R300Q); assay: Native MS POPG binding, mutant; design: species or system Erwinia chrysanthemi; conditions: binomial fit, N varied; 12 μM POPG
T2 construct: MBP (N, cleaved yes); made in house; host or cells: OverExpress C43 (DE3) E. coli
T2 sequence (P0C7B7 whole entry R298Q/R300Q): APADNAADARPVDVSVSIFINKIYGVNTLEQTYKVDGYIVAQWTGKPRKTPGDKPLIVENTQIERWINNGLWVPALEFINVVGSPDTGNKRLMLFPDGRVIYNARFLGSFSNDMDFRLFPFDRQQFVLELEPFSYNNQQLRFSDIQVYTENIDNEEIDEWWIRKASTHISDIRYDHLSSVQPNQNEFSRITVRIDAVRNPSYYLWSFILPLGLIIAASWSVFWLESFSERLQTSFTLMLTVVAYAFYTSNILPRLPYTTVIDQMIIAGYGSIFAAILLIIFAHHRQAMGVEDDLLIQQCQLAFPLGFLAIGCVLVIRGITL
Method: (§3) Native MS analysis was similar to previous descriptions for other membrane proteins ([Gault et al., 2016]). For analysis of ELIC in DDM, 30 μl of purified protein in 0.02% DDM at ~1 mg/ml was buffer exchanged into 200 mM ammonium acetate pH 7.5% and 0.02% DDM using Biospin six gel filtration spin columns (Bio-Rad, Hercules, CA). 2 μl of buffer exchanged ELIC was loaded into a borosilicate capillary emitter (Thermo Scientific, Waltham, MA), and analyzed by static nanospray on a Thermo QExactive EMR mass spectrometer. The following parameters were used to resolve the ELIC pentamer and minimize dissociation into tetramer and monomer: capillary voltage of 1.2 kV, capillary temperature of 200°C, ion transfer optics set with the injection flatapole, inter-flatapole lens, bent flatapole, transfer multiple as 8, 7, 6, 4 V, respectively, resolution 8,750, AGC target 3 × 10^6, trap pressure set to maximum, CID 200 V, and CE 100 V. For analysis of ELIC in C10E5, ELIC delipidated by injecting 300 μg onto a Sephadex 200 10/300 column (GE Healthcare) at 0.5 ml/min pre-equilibrated with Buffer A, 10% glycerol, and 0.06% C10E5 (Anatrace). 30 μl aliquots were then buffer exchanged to 100 mM ammonium acetate pH 7.5, 0.06% C10E5 using Biospin six columns, and diluted to 0.2 mg/ml. MS measurements on the QExactive EMR were performed with the parameters listed above except: capillary temperature 100°C, CID 75 V and CE 200 V. For lipid binding measurements, stocks of POPG lipid were prepared at 2× the concentration of POPG being tested in 100 mM ammonium acetate pH 7.5% and 0.06% C10E5. Lipid stocks were then mixed with 0.4 mg/ml ELIC in a 1:1 vol ratio for a final concentration of 1 μM ELIC, and samples were analyzed after >5 min incubation.
(§4) MS spectra were deconvoluted using UniDec ([Marty et al., 2015]); deconvolution of spectra with bound lipid was restricted to the 26+ to 22+ charge states (Figure 1—figure supplement 3). Peak heights of apo and lipid-bound species were extracted from UniDec, and analyzed by two approaches. The average number of bound lipids was determined by the following relationship:(1) Averagenumberboundlipid=∑n=0kn\cdot In/∑n=0kIn where n is the number of bound lipids and In is the deconvoluted peak height of ELIC with n bound lipids. Peak heights of apo and lipid-bound species were also plotted as mole fraction versus the number of bound lipids (Figure 1—figure supplement 4).
(§5) Then, the probability (B) that q sites are occupied out of N total sites is given by the binomial probability function:(3) Bq=N!/q!N-q!p^N-q(1-p)^q
(§6) B(q) was used to determine the mole fraction of each lipid-bound species at a given [A], which was used to fit the native MS data in Excel across all [A] by setting K constant and varying N or vice versa.

ELIC R123Q/R299Q = molecular target: T3, ELIC R123Q/R299Q (Dickeya chrysanthemi, UniProt P0C7B7, R123Q/R298Q); assay: Native MS POPG binding, mutant; design: species or system Erwinia chrysanthemi; conditions: binomial fit, N varied; 12 μM POPG
T3 construct: MBP (N, cleaved yes); made in house; host or cells: OverExpress C43 (DE3) E. coli
T3 sequence (P0C7B7 whole entry R123Q/R298Q): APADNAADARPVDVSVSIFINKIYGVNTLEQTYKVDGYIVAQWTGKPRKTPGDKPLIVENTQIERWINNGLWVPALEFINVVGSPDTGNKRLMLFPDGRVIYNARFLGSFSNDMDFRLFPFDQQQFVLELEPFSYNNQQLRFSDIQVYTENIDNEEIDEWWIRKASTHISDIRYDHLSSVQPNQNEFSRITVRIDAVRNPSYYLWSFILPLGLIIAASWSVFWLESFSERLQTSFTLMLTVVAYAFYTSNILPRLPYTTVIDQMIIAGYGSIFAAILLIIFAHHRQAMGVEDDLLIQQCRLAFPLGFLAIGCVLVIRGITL
Method: as §3, §4, §5, §6

ELIC R286Q/R299Q = molecular target: T4, ELIC R286Q/R299Q (Dickeya chrysanthemi, UniProt P0C7B7, R285Q/R298Q); assay: Native MS POPG binding, mutant; design: species or system Erwinia chrysanthemi; conditions: binomial fit, N varied; 12 μM POPG
T4 construct: MBP (N, cleaved yes); made in house; host or cells: OverExpress C43 (DE3) E. coli
T4 sequence (P0C7B7 whole entry R285Q/R298Q): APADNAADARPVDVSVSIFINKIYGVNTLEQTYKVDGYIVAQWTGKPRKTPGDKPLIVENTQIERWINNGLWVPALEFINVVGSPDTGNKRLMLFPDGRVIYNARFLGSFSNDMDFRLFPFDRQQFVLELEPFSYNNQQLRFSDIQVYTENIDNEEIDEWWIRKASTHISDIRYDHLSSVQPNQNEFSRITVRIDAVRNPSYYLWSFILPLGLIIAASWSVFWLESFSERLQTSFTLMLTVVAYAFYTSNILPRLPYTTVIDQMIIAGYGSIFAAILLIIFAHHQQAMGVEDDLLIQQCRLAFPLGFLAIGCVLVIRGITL
Method: as §3, §4, §5, §6

ELIC R299Q = molecular target: T5, ELIC R299Q (Dickeya chrysanthemi, UniProt P0C7B7, R298Q); assay: Native MS POPG binding, mutant; design: species or system Erwinia chrysanthemi; conditions: binomial fit, N varied; 12 μM POPG
T5 construct: MBP (N, cleaved yes); made in house; host or cells: OverExpress C43 (DE3) E. coli
T5 sequence (P0C7B7 whole entry R298Q): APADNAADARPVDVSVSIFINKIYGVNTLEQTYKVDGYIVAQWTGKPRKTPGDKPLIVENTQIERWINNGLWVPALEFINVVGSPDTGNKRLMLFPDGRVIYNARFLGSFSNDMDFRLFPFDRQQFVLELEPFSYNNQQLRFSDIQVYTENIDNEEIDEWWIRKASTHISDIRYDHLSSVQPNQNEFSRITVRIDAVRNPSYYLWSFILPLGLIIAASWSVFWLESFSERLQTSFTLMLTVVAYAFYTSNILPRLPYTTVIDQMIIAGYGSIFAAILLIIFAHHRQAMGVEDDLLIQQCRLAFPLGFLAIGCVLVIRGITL
Method: as §3, §4, §5, §6

ELIC R286Q = molecular target: T6, ELIC R286Q (Dickeya chrysanthemi, UniProt P0C7B7, R285Q); assay: Native MS POPG binding, mutant; design: species or system Erwinia chrysanthemi; conditions: binomial fit, N varied; 12 μM POPG
T6 construct: MBP (N, cleaved yes); made in house; host or cells: OverExpress C43 (DE3) E. coli
T6 sequence (P0C7B7 whole entry R285Q): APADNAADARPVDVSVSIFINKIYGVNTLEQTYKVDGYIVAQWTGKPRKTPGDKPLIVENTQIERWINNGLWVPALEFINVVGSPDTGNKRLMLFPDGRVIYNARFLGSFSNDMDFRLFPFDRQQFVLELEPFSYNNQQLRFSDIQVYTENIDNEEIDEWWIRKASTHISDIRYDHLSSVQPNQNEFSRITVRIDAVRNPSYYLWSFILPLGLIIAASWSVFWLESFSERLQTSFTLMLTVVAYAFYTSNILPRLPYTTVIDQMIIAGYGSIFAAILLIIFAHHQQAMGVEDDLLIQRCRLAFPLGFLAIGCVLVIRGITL
Method: as §3, §4, §5, §6

ELIC R117Q/R299Q = molecular target: T7, ELIC R117Q/R299Q (Dickeya chrysanthemi, UniProt P0C7B7, R117Q/R298Q); assay: Native MS POPG binding, mutant; design: species or system Erwinia chrysanthemi; conditions: binomial fit, N varied; 12 μM POPG
T7 construct: MBP (N, cleaved yes); made in house; host or cells: OverExpress C43 (DE3) E. coli
T7 sequence (P0C7B7 whole entry R117Q/R298Q): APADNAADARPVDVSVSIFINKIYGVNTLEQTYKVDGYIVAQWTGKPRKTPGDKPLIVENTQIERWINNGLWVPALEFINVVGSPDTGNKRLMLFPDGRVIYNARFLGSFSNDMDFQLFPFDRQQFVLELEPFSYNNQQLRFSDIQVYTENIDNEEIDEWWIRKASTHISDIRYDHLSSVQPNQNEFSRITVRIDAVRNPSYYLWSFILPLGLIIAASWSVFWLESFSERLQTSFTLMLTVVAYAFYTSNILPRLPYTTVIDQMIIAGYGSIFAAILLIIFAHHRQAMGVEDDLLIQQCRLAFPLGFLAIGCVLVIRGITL
Method: as §3, §4, §5, §6

ELIC WT [4] = assay: Thermal stability assay (SEC pentamer peak after heating); format: binding, Erwinia chrysanthemi
Method: Purified WT ELIC in C10E5 (Buffer A, 0.06% C10E5) was diluted to 1 μM in the absence or presence of various concentrations of phospholipid. Samples were analyzed without and with heating in the absence or presence of phospholipid. […] The stabilizing effect of a phospholipid was quantified as the pentamer amplitude in the presence of phospholipid (heated) divided by control (heated).

ELIC WT [5] = assay: Native MS phospholipid binding to delipidated ELIC in C10E5; design: species or system Erwinia chrysanthemi
Method: as §3, §4, §5, §6

SMILES: CCCCCCCC/C=C\CCCCCCCC(=O)OC(COC(=O)CCCCCCCCCCCCCCC)COP(=O)(O)OCC(O)CO (centres unmarked) [POPG, 1-palmitoyl-2-oleoyl-phosphatidylglycerol]
- Decrease in bound phospholipid with each double mutant [1]: 35–45%
- Decrease in average number of bound POPG relative to R299Q ([1]; 12 μM POPG): 27–32%
- Decrease in average number of bound POPG relative to WT ([1]; 12 μM POPG): 38–41%
- Decrease in average number of bound POPG compared to WT [2]: 13–18%
- Desensitization weighted τ (ELIC WT [3]; 12 mole% POPG giant liposomes): 0.93 ± 0.32 s
- Activation τ (ELIC WT [3]; 12 mole% POPG): 112 ± 29 ms
- Desensitization norm current at 20 s (ELIC WT [3]; 12 mole% POPG): 0.05 ± 0.02
- Activation τ (ELIC WT [3]; 25 mole% POPG): 134 ± 50 ms
- Desensitization norm current at 20 s (ELIC WT [3]; 25 mole% POPG): 0.10 ± 0.04
- Desensitization weighted τ (ELIC WT [3]; 40 mole% POPG giant liposomes): 2.98 ± 0.24 s
- Activation τ (ELIC WT [3]; 40 mole% POPG): 133 ± 66 ms
- Desensitization norm current at 20 s (ELIC WT [3]; 40 mole% POPG): 0.21 ± 0.03
- Increase in average number of POPG bound compared to WT (ELIC L238A): ~ 1.7 x
- N (# sites) (ELIC R301Q/R299Q): 21
- N (# sites) (ELIC R123Q/R299Q): 18
- N (# sites) (ELIC R286Q/R299Q): 18
- N (# sites) (ELIC R299Q): 27
- N (# sites) (ELIC R286Q): 28
- N (# sites) (ELIC R117Q/R299Q): 20
- EC50 (ELIC WT [4]; 1 μM ELIC in C10E5, 32°C for 15 min, read-out: EC50 of thermal stabilizing effect (concentration of POPG for 50% effect)): 52 µM
- Fraction of thermal stabilizing effect yielded by 32 bound POPG (ELIC WT [4]; extrapolation relating POPG binding to thermal stability): ~ 82% and > 80%
- Average number of bound phospholipids per pentamer (ELIC WT [5]; 12 μM lipid, 1 μM ELIC): 2.9
- Maximum number of bound POPG per pentamer seen in native MS spectra (ELIC WT [5]; 12 μM lipid, 1 μM ELIC): up to nine
- Kd (ELIC WT [5]; binomial binding model, 32 sites of equal affinity, 1 μM ELIC in C10E5, read-out: Dissociation constant K): 101 µM
- Fold higher affinity than POPC (ELIC WT [5]; from binomial fits): ~2.8 ×
- Fold higher affinity than POPE (ELIC WT [5]; from binomial fits): ~ 1.9 ×
